The NIST ThermoML archive (doi:10.1016/j.jct.2010.04.013)

Experiment: mn = molality of the nth substance listed, in mol/kg
Conditions: 101 kPa, Liquid; for mass density: Vibrating tube method; for speed of sound: Pulse-echo method

[Mg+2].[O-][Cl+3]([O-])([O-])[O-].[O-][Cl+3]([O-])([O-])[O-] [magnesium perchlorate] + CO
Conditions | mass density, 283.15 K [kg/m3] | mass density, 288.15 K [kg/m3] | mass density, 293.15 K [kg/m3] | mass density, 298.15 K [kg/m3] | mass density, 303.15 K [kg/m3] | mass density, 308.15 K [kg/m3] | mass density, 313.15 K [kg/m3] | speed of sound, 298.15 K [m/s]
m1 = 0.05219 | 809.719 | 805.077 | 800.41 | 795.738 | 791.047 | 786.336 | 781.598 | 1109.9
m1 = 0.06927 | 812.714 | 808.079 | 803.422 | 798.76 | 794.077 | 789.377 | 784.647 | 1112.6
m1 = 0.08495 | 815.487 | 810.862 | 806.214 | 801.554 | 796.877 | 792.189 | 787.47 | 1115.2
m1 = 0.1015 | 818.369 | 813.747 | 809.112 | 804.466 | 799.801 | 795.117 | 790.405 | 1117.5
m1 = 0.1173 | 821.156 | 816.545 | 811.914 | 807.277 | 802.62 | 797.944 | 793.24 | 1120
m1 = 0.1339 | 824.082 | 819.477 | 814.852 | 810.224 | 805.578 | 800.91 | 796.216 | 1122.5
m1 = 0.1663 | 829.827 | 825.238 | 820.63 | 816.008 | 811.382 | 806.732 | 802.054 | 1127.2
m1 = 0.1999 | 835.828 | 831.249 | 826.659 | 822.059 | 817.443 | 812.807 | 808.147 | 1132.5
m1 = 0.2312 | 841.439 | 836.878 | 832.301 | 827.71 | 823.106 | 818.493 | 813.847 | 1137.2
m1 = 0.2628 | 847.212 | 842.663 | 838.096 | 833.522 | 828.937 | 824.333 | 819.703 | 1142
m1 = 0.2917 | 852.468 | 847.932 | 843.38 | 838.819 | 834.243 | 829.645 | 825.025 | 1146.5
m1 = 0.3234 | 858.304 | 853.784 | 849.245 | 844.698 | 840.139 | 835.559 | 830.96 | 1151.8

[Mg+2].[O-][Cl+3]([O-])([O-])[O-].[O-][Cl+3]([O-])([O-])[O-] [magnesium perchlorate] + C[S+](C)[O-]
Conditions | mass density, 293.15 K [kg/m3] | mass density, 298.15 K [kg/m3] | mass density, 303.15 K [kg/m3] | mass density, 313.15 K [kg/m3] | mass density, 323.15 K [kg/m3] | mass density, 333.15 K [kg/m3] | speed of sound, 298.15 K [m/s]
m1 = 0.02171 | 1103.82 | 1098.81 | 1093.8 | 1083.79 | 1073.79 | 1063.78 | –
m1 = 0.03119 | 1105.4 | 1100.4 | 1095.39 | 1085.4 | 1075.41 | 1065.42 | 1486.8
m1 = 0.04163 | 1107.14 | 1102.15 | 1097.16 | 1087.18 | 1077.2 | 1067.23 | 1487.7
m1 = 0.05295 | 1109.04 | 1104.04 | 1099.06 | 1089.1 | 1079.15 | 1069.19 | 1488.7
m1 = 0.06473 | 1111.01 | 1106.03 | 1101.06 | 1091.11 | 1081.18 | 1071.25 | 1489.7
m1 = 0.08226 | 1113.97 | 1109 | 1104.04 | 1094.12 | 1084.21 | 1074.31 | 1491.1
m1 = 0.1041 | 1117.67 | 1112.71 | 1107.76 | 1097.88 | 1088 | 1078.12 | 1493
m1 = 0.1277 | 1121.69 | 1116.74 | 1111.81 | 1101.96 | 1092.12 | 1082.29 | 1494.8
m1 = 0.1481 | 1125.19 | 1120.27 | 1115.34 | 1105.52 | 1095.7 | 1085.9 | 1496.7
m1 = 0.1734 | 1129.53 | 1124.62 | 1119.72 | 1109.94 | 1100.17 | 1090.39 | 1498.8
m1 = 0.1952 | 1133.31 | 1128.4 | 1123.52 | 1113.77 | 1104.03 | 1094.3 | 1500.8

CO [methanol] + O=S(=O)([O-])C(F)(F)F.O=S(=O)([O-])C(F)(F)F.[Be+2]
m2 = 0
Conditions | mass density [kg/m3]
283.15 K | 800.552
288.15 K | 795.874
293.15 K | 791.179
298.15 K | 786.469
303.15 K | 781.742
308.15 K | 776.993
313.15 K | 772.216

CO [methanol] + O=S(=O)([O-])C(F)(F)F.[Na+]
m2 = 0
Conditions | mass density [kg/m3]
283.15 K | 800.544
288.15 K | 795.854
293.15 K | 791.158
298.15 K | 786.447
303.15 K | 781.714
308.15 K | 776.97
313.15 K | 772.195

CO [methanol] + [Ba+2].[O-][Cl+3]([O-])([O-])[O-].[O-][Cl+3]([O-])([O-])[O-]
m2 = 0
Conditions | mass density [kg/m3]
283.15 K | 800.555
288.15 K | 795.877
293.15 K | 791.18
298.15 K | 786.468
303.15 K | 781.739
308.15 K | 776.993
313.15 K | 772.219

CO [methanol] + [Ca+2].[O-][Cl+3]([O-])([O-])[O-].[O-][Cl+3]([O-])([O-])[O-]
m2 = 0
Conditions | mass density [kg/m3]
283.15 K | 800.54
288.15 K | 795.862
293.15 K | 791.168
298.15 K | 786.458
303.15 K | 781.732
308.15 K | 776.98
313.15 K | 772.203

CO [methanol] + [Mg+2].[O-][Cl+3]([O-])([O-])[O-].[O-][Cl+3]([O-])([O-])[O-]
m2 = 0
Conditions | mass density [kg/m3]
283.15 K | 800.542
288.15 K | 795.864
293.15 K | 791.17
298.15 K | 786.46
303.15 K | 781.735
308.15 K | 776.985
313.15 K | 772.206

CO [methanol] + [O-][Cl+3]([O-])([O-])[O-].[O-][Cl+3]([O-])([O-])[O-].[Sr+2]
m2 = 0
Conditions | mass density [kg/m3]
283.15 K | 800.547
288.15 K | 795.856
293.15 K | 791.16
298.15 K | 786.447
303.15 K | 781.721
308.15 K | 776.973
313.15 K | 772.194

O=S(=O)([O-])C(F)(F)F.[Na+] [sodium trifluoromethanesulfonate] + CO
Conditions | mass density, 283.15 K [kg/m3] | mass density, 288.15 K [kg/m3] | mass density, 293.15 K [kg/m3] | mass density, 298.15 K [kg/m3] | mass density, 303.15 K [kg/m3] | mass density, 308.15 K [kg/m3] | mass density, 313.15 K [kg/m3] | speed of sound, 298.15 K [m/s]
m1 = 0.04581 | 805.004 | 800.315 | 795.62 | 790.91 | 786.191 | 781.448 | 776.675 | 1102.3
m1 = 0.05858 | 806.247 | 801.557 | 796.863 | 792.154 | 787.428 | 782.688 | 777.918 | 1102.5
m1 = 0.07409 | 807.746 | 803.057 | 798.363 | 793.657 | 788.931 | 784.175 | 779.409 | 1103
m1 = 0.08825 | 809.117 | 804.427 | 799.733 | 795.022 | 790.305 | 785.561 | 780.79 | 1103.2
m1 = 0.1028 | 810.527 | 805.836 | 801.14 | 796.431 | 791.701 | 786.964 | 782.194 | 1103.4
m1 = 0.1172 | 811.93 | 807.238 | 802.543 | 797.833 | 793.105 | 788.352 | 783.59 | 1103.6
m1 = 0.1463 | 814.771 | 810.077 | 805.377 | 800.668 | 795.947 | 791.201 | 786.428 | 1104
m1 = 0.1743 | 817.509 | 812.812 | 808.112 | 803.401 | 798.671 | 793.913 | 789.143 | 1104.6
m1 = 0.2027 | 820.305 | 815.606 | 810.904 | 806.19 | 801.46 | 796.713 | 791.938 | 1105
m1 = 0.2301 | 823.038 | 818.338 | 813.634 | 808.917 | 804.185 | 799.436 | 794.66 | 1105.2
m1 = 0.2574 | 825.732 | 821.028 | 816.321 | 811.601 | 806.867 | 802.106 | 797.321 | 1105.4
m1 = 0.2861 | 828.58 | 823.872 | 819.161 | 814.439 | 809.7 | 804.938 | 800.15 | 1105.6
